From ChEMBL document CHEMBL1137844, “Design, synthesis and structure-activity relationship of novel RXR-selective modulators” (Bioorg Med Chem Lett, 2004)
pEC50, pIC50, pKi: −log10 of the molar value.

Tests used:
[1] = target: T1, Retinoic acid receptor RXR-alpha (Homo sapiens, UniProt P19793); assay: Binding affinity against Retinoic acid receptor RXR-alpha by [3H]9-cis-RA displacement.
T1 sequence (P19793 whole entry): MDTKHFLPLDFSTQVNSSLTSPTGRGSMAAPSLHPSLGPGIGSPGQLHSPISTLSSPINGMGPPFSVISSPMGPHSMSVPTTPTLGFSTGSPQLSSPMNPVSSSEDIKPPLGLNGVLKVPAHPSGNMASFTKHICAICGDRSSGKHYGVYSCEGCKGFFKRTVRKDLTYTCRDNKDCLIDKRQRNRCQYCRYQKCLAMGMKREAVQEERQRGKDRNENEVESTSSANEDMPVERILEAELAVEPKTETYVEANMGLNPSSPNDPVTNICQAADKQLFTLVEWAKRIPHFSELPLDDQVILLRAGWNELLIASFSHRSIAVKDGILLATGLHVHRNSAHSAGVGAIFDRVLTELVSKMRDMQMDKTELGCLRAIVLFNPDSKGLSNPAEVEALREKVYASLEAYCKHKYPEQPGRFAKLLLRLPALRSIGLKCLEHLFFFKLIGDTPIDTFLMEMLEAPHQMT

[2] = target: T2, Retinoic acid receptor RXR-beta (Homo sapiens, UniProt P28702); assay: Displacement of [3H]9-cis-RA from Retinoic X receptor beta
T2 sequence (P28702 whole entry): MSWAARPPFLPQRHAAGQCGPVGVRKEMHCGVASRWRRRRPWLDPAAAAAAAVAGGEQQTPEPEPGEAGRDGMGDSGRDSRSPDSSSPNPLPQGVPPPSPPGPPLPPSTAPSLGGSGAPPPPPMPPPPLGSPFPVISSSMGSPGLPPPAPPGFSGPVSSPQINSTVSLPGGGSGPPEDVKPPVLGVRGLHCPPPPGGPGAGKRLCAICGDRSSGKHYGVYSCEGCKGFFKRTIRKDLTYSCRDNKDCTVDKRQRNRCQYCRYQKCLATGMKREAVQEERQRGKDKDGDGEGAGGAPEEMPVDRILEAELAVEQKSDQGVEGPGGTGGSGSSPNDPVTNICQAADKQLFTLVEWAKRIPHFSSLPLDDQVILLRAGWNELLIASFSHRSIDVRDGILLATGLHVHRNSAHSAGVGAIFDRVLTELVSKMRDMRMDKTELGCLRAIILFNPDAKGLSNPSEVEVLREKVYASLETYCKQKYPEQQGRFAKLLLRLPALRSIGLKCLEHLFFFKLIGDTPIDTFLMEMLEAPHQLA

[3] = target: T3, Retinoic acid receptor RXR-gamma (Homo sapiens, UniProt P48443); assay: Displacement of [3H]9-cis-RA from retinoic X receptor gamma
T3 sequence (P48443 whole entry): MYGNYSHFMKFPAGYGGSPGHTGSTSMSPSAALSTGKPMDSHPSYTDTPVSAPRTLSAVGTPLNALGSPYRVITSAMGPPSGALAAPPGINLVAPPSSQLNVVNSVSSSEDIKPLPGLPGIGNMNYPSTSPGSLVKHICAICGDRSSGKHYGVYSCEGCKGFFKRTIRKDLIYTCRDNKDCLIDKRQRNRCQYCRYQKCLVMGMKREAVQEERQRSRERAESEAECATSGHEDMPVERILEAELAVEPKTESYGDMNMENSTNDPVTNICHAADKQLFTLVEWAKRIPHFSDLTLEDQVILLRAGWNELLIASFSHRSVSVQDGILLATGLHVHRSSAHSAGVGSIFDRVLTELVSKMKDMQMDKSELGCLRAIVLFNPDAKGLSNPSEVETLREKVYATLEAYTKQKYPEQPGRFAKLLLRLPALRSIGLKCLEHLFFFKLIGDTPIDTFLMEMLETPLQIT

[4] = target: T1, Retinoic acid receptor RXR-alpha; assay: Antagonist activity for Retinoic X receptor alpha in CV1 cells; format: functional, cell-based, CV-1
[5] = target: T4, Retinoic acid receptor alpha (Homo sapiens, UniProt P10276); assay: Binding affinity against retinoic acid receptor alpha by [3H]ATRA displacement.
T4 sequence (P10276 whole entry): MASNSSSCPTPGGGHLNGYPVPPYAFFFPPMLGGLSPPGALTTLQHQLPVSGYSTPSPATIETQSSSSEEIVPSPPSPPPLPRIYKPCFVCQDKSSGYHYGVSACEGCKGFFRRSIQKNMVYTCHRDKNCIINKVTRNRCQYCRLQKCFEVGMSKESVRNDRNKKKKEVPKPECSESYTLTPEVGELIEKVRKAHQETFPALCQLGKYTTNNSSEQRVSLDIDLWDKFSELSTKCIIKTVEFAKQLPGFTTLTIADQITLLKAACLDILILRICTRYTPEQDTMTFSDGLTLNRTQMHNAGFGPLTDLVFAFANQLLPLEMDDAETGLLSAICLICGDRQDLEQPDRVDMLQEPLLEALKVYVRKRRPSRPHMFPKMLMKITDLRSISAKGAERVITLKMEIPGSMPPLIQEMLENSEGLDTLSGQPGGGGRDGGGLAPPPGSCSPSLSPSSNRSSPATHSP

[6] = target: T1, Retinoic acid receptor RXR-alpha; assay: Transcriptional activation in CV-1 cells expressing Retinoid X receptor alpha; format: cell-based

pKi [1] | pKi [2] | pKi [3] | pIC50 [4] | pKi [5] | pEC50 [6] | Structure (SMILES)
6.79 | 6.58 | 6.30 | 6.52 | < 5.00 | – | C/C(=C\C(=O)O)c1cc2cccc(-c3cc(C(C)C)cc(C(C)C)c3OCC(F)F)c2o1
8.22 | 7.96 | 7.92 | – | < 5.00 | 7.70 | CCOc1c(-c2cccc3sc(/C(C)=C/C(=O)O)cc23)cc(C(C)C)cc1C(C)C
7.80 | 7.19 | 7.55 | 7.96 | < 5.00 | – | CCCCOc1c(-c2cccc3cc(/C(C)=C(\F)C(=O)O)oc23)cc(C(C)C)cc1C(C)C
6.57 | – | – | – | 5.22 | 6.41 | CCOc1c(-c2cccc3cc(/C(C)=C/C(=O)O)sc23)cc(C(C)C)cc1C(C)C
7.36 | – | – | 6.89 | 5.07 | – | CCCOc1c(-c2cccc3cc(/C(C)=C/C(=O)O)oc23)cc(C(C)C)cc1C(C)C
– | 7.82 | 7.70 | 7.80 | 5.16 | – | CCCOc1c(-c2cccc3sc(/C(C)=C/C(=O)O)cc23)cc(C(C)C)cc1C(C)C
7.33 | – | – | 6.71 | < 5.00 | – | C/C(=C\C(=O)O)c1cc2cccc(-c3cc(C(C)C)cc(C(C)C)c3OCCCF)c2o1
7.00 | 8.40 | 7.31 | 7.66 | < 5.00 | – | C/C(=C(/F)C(=O)O)c1cc2cccc(-c3cc(C(C)C)cc(C(C)C)c3OCC(F)F)c2o1
– | – | – | – | < 5.00 | 7.13 | CCOc1c(-c2cccc3cc(/C(C)=C/C(=O)O)oc23)cc(C(C)C)cc1C(C)C
6.70 | 6.85 | 6.48 | 6.46 | – | – | C/C(=C\C(=O)O)c1cc2cccc(-c3cc(C(C)C)cc(C(C)C)c3OCC(F)(F)F)c2o1

Continued, compound first:

Structure (SMILES) | pKi [1] | pKi [2] | pKi [3] | pIC50 [4] | pKi [5] | pEC50 [6]
C/C(=C\C(=O)O)c1cc2c(-c3cc(C(C)(C)C)cc(C(C)(C)C)c3OCCC(F)F)cccc2s1 | 8.15 | 7.92 | 7.43 | 7.80 | < 5.00 | –
Cc1cc2c(cc1C1(c3ccc(C(=O)O)cn3)CC1)C(C)(C)CCC2(C)C | – | 8.12 | – | – | – | –
C/C(=C\C(=O)O)c1cc2c(-c3cc(C(C)(C)C)cc(C(C)(C)C)c3OCC(F)F)cccc2s1 | – | 7.26 | 7.70 | 7.62 | 5.08 | –
C/C(=C/C=C/C(C)=C/C(=O)O)c1cc(C(C)(C)C)cc(C(C)(C)C)c1OCC(F)F | – | 7.74 | 7.41 | – | < 6.00 | –
C/C(=C\C(=O)O)c1cc2c(-c3cc(C(C)(C)C)cc(C(C)(C)C)c3OCC(F)(F)F)cccc2s1 | 8.52 | 8.00 | 7.70 | 7.85 | < 5.00 | –
C/C(=C\C(=O)O)c1cc2c(-c3cc(C(C)(C)C)cc(C(C)(C)C)c3OCCCF)cccc2s1 | 8.52 | 8.00 | 7.68 | 8.10 | 5.14 | –
CCCCCCCOc1c(-c2cccc3sc(/C(C)=C/C(=O)O)cc23)cc(C(C)(C)C)cc1C(C)(C)C | 8.30 | 7.92 | 7.55 | 7.08 | < 5.00 | –
C/C(=C\C(=O)O)c1cc2c(-c3cc(C(C)(C)C)cc(C(C)(C)C)c3C)cccc2s1 | 8.15 | 7.48 | 7.27 | – | 5.75 | 7.41
